SMILES strings stand for the structures.

This assay concerns BPLER cells. Description: cell migration assay (dual-chamber with small pores). The class given is cell-based, human. The following applies: cells transfected with siRNAs against NANS or CMAS, supplemented with NANA. As for the experimental part:
However, NANA is incorporated on the cell surface of several proteins involved in cell adhesion, and loss of NANA was suspected to affect cell motility. Using a cell migration assay, cells were cultured in a dual-chamber containing small pores at the bottom of the top chamber, malignant cells (especially those with metastatic potential) are able to migrate through the pores and form colonies. As expected, shown in FIG. 12 BPLER have an increased migration rate as compared to HMLER cells due to their increased turmorigenic properties. […] To confirm NANA expression directly influences motility, a rescue experiment was performed in which cells transfected with siRNAs against NANS or CMAS were supplemented NANA. […] Monitoring NANA expression could predict the metastatic potential of a cell. In addition both NANS/CMAS are novel key targets to manipulate migration and metastasis.

As for `CC(=O)N[C@H]1[C@H]([C@H](O)[C@H](O)CO)OC(O)(C(=O)O)C[C@@H]1O` (stereo partly shown) [NANA, N-acetylneuraminic acid], the “rescue of migration phenotype” value is listed as “partially restore”.
